Reference: patent EP0636633A1, “A triterpenoid saponin, extraction thereof and use to treat or prevent diabetes mellitus” (KOWA CHEMICAL INDUSTRIES CO., LTD., priority 1993, dated 1995)

Legend:
DDF male mice = experiment: Acute toxicity test, forced oral administration; conditions: for Number of dead animals: mouse, in vivo, po
Description: An acute toxicity test was effected by the following procedure.
Use was made of DDF male mice having a weight of 25 g, and each group consisted of 10 animals. The animals were ingested a solid feed (for breeding) while they freely got tap water as drinking water.
The triterpenoid saponin was suspended in 1% CMC physiological saline to a concentration of 200 mg/ml.
The test substance was administered with a probe by forced oral administration. The dose was 5000 mg/kg for one group and 2500 mg/kg for another group. Test period was 7 days. After the administration, the animals were continuously observed for 3 hr, and, thereafter, observation was effected of general symptoms every 6 hr.

sweet taste responses = experiment: sweet taste response inhibition test; format: in vivo; conditions: for taste of Aqueous Sucrose Solution, panelists ①②③④⑤: after 0.08% sample solution kept in mouth 2 min
Description: A sweet taste response inhibition test was effected for the triterpenoid saponin of the present invention and Gymnemic acid 1 and Gymnemic acid 2 obtained from Gymnema sylvestre, R. Br. known to have an inhibitory effect on glucose adsorption.
The triterpenoid saponin prepared in Example 1 and Gymnemic acid 1 and Gymnemic acid 2 were dissolved in a 0.01 M/liter aqueous sodium bicarbonate (NaHCO₃) solution to prepare a 0.08% triterpenoid saponin solution, a 0.08% Gymnemic acid 1 solution and a 0.08 % Gymnemic acid 2 solution.
Separately, 0.1 M/liter, 0.2 M/liter, 0.3 M/liter, 0.4 M/liter and 0.5 M/liter aqueous sucrose solutions were previously prepared. The sweet taste response inhibition test was effected according to the following procedure.
• 1) 5 ml of the triterpenoid saponin solution or Gymnemic acid 1 or 2 solution was kept in mouth so that it was spread in the whole mouth. • 2) 2 min after that, the sample solution was spit out, and the mouth was sufficiently rinsed with distilled water. • 3) The above-described aqueous sucrose solutions were successively kept in the mouth in the order of concentration from the lowest to the highest, and the sucrose concentration of the solution which was first sweet to the taste was recorded.

In the case of `CC1(C)CC[C@]2(CO)[C@@H](O)C[C@]3(C)C(=CC[C@@H]4[C@@]5(C)CC[C@H](O[C@@H]6O[C@H](C(=O)O)[C@@H](O)[C@H](O)[C@H]6O[C@@H]6O[C@H](CO)[C@@H](O)[C@H](O)[C@H]6O)C(C)(C)[C@@H]5CC[C@]43C)[C@@H]2C1` [triterpenoid saponin, (3β,16β)-16,28-dihydroxyolean-12-en-3-yl-2-O-β-D-glucopyranosyl-β-D-glucopyranosiduronic acid], the Other general symptoms (DDF male mice; Dose 2500 mg/kg, oral, 7 days) is reported as “Do”, the Other general symptoms (DDF male mice; Dose 5000 mg/kg, oral, 7 days) is reported as “None of the animals exhibited any abnormal symptom” and the toxicity (DDF male mice; acute toxicity test, oral, mice, 7 days) is reported as “no toxicity was observed”. The “Number of dead animals” value (DDF male mice; 2500 mg/kg) was 0, the “Number of dead animals” value (DDF male mice; 5000 mg/kg) was 0 and the “inhibitory effect on the sweet taste responses” value (sweet taste responses; 0.08% sample solution) was “no inhibitory effect on the sweet taste responses”. For the same compound, the “taste of Aqueous Sucrose Solution, panelists ①②③④⑤” value (sweet taste responses; sucrose 0.1 M/liter) was “Δ○○Δ○” and the “taste of Aqueous Sucrose Solution, panelists ①②③④⑤” value (sweet taste responses; sucrose 0.2 M/liter) was “○○○○○”.
